Experimental findings from US9233971B2, “Lipomacrocycles and uses thereof” (priority 2010, dated 2016) are described below.

Structures are written as SMILES.

One experiment relates to SSB mRNA in liver. In words: In vivo gene knockdown, liposomal siRNA formulation (Example 3), SSB siRNA. Details: species or system CD1 mice. The following applies: for Targeted mRNA remain in liver: liposomal formulation, SSB siRNA, dose 3.2 mg/kg intravenously, CD1 mice, liver harvested three days later, real-time RT-PCR, GAPDH reference. The protocol:
Each liposome formulation was made by mixing lipids of each lipomacrocycle compound (Table 1) combined with DSPC, DMG-PEG 2K, and cholesterol at the weight ratio of 3.85:0.42:0.21:0.79 in ethanol and siRNA in water. Then 5% dextrose water was added in each formulation before dosing to mice.
(§1) All procedures used in animal studies conducted were approved by the Institutional Animal Care and Use Committee (IACUC) and were consistent with local, state and federal regulations as applicable. Mice, rats, and rabbits received siRNA formulations intravenously at dose volume of 0.2 ml, 1 ml, or 10 ml, respectively. Animals were sacrificed 2 to 7 days later. Tissues were harvested and mRNA was isolated with Turbocapture kit (Qiagen) for analyzing change of gene expression with real-time RT-PCR method (SensiMix SYBR One-Step Kit, Bioline). Serum was harvested for analyzing blood chemistry.
(§2) CD1 mice were dosed with lipid particle (Table 1) or liposome (Table 2) siRNA formulation intravenousely and the different tissues were harvested three days later. The gene expression was analyzed with real-time RT-PCR method (for liver, GAPDH as reference gene; for lung and bone marrow, GAPDG and β-actin as reference genes).
In general terms: Quantitative PCR measures a nucleic acid by following its amplification.

Another experiment relates to APOB mRNA in liver. Nature of the experiment: In vivo gene knockdown, lipid particle siRNA formulation (Example 4), APOB siRNA. Details: species or system CD1 mice. The following applies: for Targeted mRNA remain in liver: lipid particles, APOB siRNA, CD1 mice, liver harvested three days later, real-time RT-PCR, GAPDH reference. The protocol: Lipid Particle formulations were made by first mixed siRNA in an aqueous solution with DOTMA in organic solvent to produce a water-insoluble precipitate. After isolating and drying the precipitate, the precipitate was dissolved in chloroform and further mixed with other lipids as following: Each lipid particle formulation was consisting of 1 part DOTMA+siRNA complex/5 parts any lipomacrocycle compound (Table 1)/1.5 parts N 6-tetrakis (3-aminopropyl)-1,3-propanediamine cholesteryl carbamate/2.2 parts 1,2-dilinoleoyl-sn-glycero-3-phosphoethanolamine/10.08 parts cholesterol PEG-660/4.32 parts cholesterol PEG-660/0.6 parts cholesterol (weight/weight). All the components were dissolved in chloroform and mixed together. Then, the mixtures were dried overnight in Speedvac. The dried formulations were hydrated by adding in certain amount of 5% dextrose water before dosing to animals intravenously.
as §1, §2

As to `CCCCCCCCCCCCCCC(O)CN(CCCN(CCCN(CC(O)CCCCCCCCCCCCCC)CC(O)CCCCCCCCCCCCCC)CCCN(CC(O)CCCCCCCCCCCCCC)CC(O)CCCCCCCCCCCCCC)CC(O)CCCCCCCCCCCCCC` (stereo not drawn) [TaC7], the “Targeted mRNA remain in liver” value in the experiment with SSB mRNA in liver is reported as 0.33.
The same measure, in the same setting: the result for `CCCCC(CC)COCC(O)CN(CCN(CCN(CC(O)COCC(CC)CCCC)CC(O)COCC(CC)CCCC)CCN(CC(O)COCC(CC)CCCC)CC(O)COCC(CC)CCCC)CC(O)COCC(CC)CCCC` (stereo not drawn) [Compound T5C3] reads 0.43.
Regarding `CCCCCCCCCCCCOCC(O)CN1CCN(CC(O)COCCCCCCCCCCCC)CCN(CC(O)COCCCCCCCCCCCC)CCN(CC(O)COCCCCCCCCCCCC)CCN(CC(O)COCCCCCCCCCCCC)CCN(CC(O)COCCCCCCCCCCCC)CC1` (stereo not drawn) [Compound M10C8], in the experiment on APOB mRNA in liver (dose 1 mg/kg intravenously), the “Targeted mRNA remain in liver” value was found to be 0.06. The “performance of the lipid molecules, best compounds” value with APOB mRNA in liver (ranking based on the results of Table 1 (lipid particles, APOB and SSB siRNA)) is on record as “best”.
On to `CCCCCCCCCCOCC(O)CN(CCCN(CCCN(CC(O)COCCCCCCCCCC)CC(O)COCCCCCCCCCC)CCCN(CC(O)COCCCCCCCCCC)CC(O)COCCCCCCCCCC)CC(O)COCCCCCCCCCC` (stereo not drawn) [TaC2], for which, in the experiment with SSB mRNA in liver, the “Targeted mRNA remain in liver” value amounted to 0.13.
Same read-out and setting: the result for `CCCCCCCCCCCCC(O)CN1CCN(Cc2ccccc2)CCN(CC(O)CCCCCCCCCCCC)CCN(Cc2ccccc2)CC1` (stereo not drawn) [Compound M6C6] reads 0.8.
Take `CCCCCCCCCCCCCCOCC(O)CN(CCCN(CCCN(CC(O)COCCCCCCCCCCCCCC)CC(O)COCCCCCCCCCCCCCC)CCCN(CC(O)COCCCCCCCCCCCCCC)CC(O)COCCCCCCCCCCCCCC)CC(O)COCCCCCCCCCCCCCC` (stereo not drawn) [TaC1]: the “Targeted mRNA remain in liver” value was found to be 0.81 with APOB mRNA in liver (dose 0.8 mg/kg intravenously) and 0.1 in the experiment with SSB mRNA in liver.
As to `CCCCCCCCCCCCCCC(O)CN(CCCN(CC(O)CCCCCCCCCCCCCC)CC(O)CCCCCCCCCCCCCC)CCCN(CC(O)CCCCCCCCCCCCCC)CC(O)CCCCCCCCCCCCCC` (stereo not drawn) [Compound D1C7], in the experiment on SSB mRNA in liver, the “Targeted mRNA remain in liver” value is 0.52.
In the case of `CCCCCCCCCCOCC(O)CN(CCCN(C)CCCN(CC(O)COCCCCCCCCCC)CC(O)COCCCCCCCCCC)CC(O)COCCCCCCCCCC` (stereo not drawn) [Compound B1C2], the “Targeted mRNA remain in liver” value in the experiment with SSB mRNA in liver turned out to be 0.68.
For the molecule `CCCCCCCCCCC(O)CN(CCCN(CCCN(CC(O)CCCCCCCCCC)CC(O)CCCCCCCCCC)CCCN(CC(O)CCCCCCCCCC)CC(O)CCCCCCCCCC)CC(O)CCCCCCCCCC` (stereo not drawn) [TaC4], the “Targeted mRNA remain in liver” value in the experiment with SSB mRNA in liver was 0.12.
On the same count and under the same terms, the result for `CCCCC(CC)COCC(O)CN(CCCN(CCCCN(CCCN(CC(O)COCC(CC)CCCC)CC(O)COCC(CC)CCCC)CCCN(CC(O)COCC(CC)CCCC)CC(O)COCC(CC)CCCC)CCCN(CC(O)COCC(CC)CCCC)CC(O)COCC(CC)CCCC)CC(O)COCC(CC)CCCC` (stereo not drawn) [Compound T4C3] reads 0.12; that for `CCCCCCCCCCCCCCOCC(O)CN(CCN(CCN(CC(O)COCCCCCCCCCCCCCC)CC(O)COCCCCCCCCCCCCCC)CCN(CC(O)COCCCCCCCCCCCCCC)CC(O)COCCCCCCCCCCCCCC)CC(O)COCCCCCCCCCCCCCC` (stereo not drawn) [Compound T5C1], 0.13; that for `CCCCC(CC)COCC(O)CN1CCN(Cc2ccccc2)CCN(CC(O)COCC(CC)CCCC)CCN(CC(O)COCC(CC)CCCC)CC1` (stereo not drawn) [Compound M1C3], 0.64.
`CCCCCCCCCCCCC(O)CN(CCCN1CCN(CCCN(CC(O)CCCCCCCCCCCC)CC(O)CCCCCCCCCCCC)CC1)CC(O)CCCCCCCCCCCC` (stereo not drawn) [Compound B2C6]: the “Targeted mRNA remain in liver” value in the experiment on SSB mRNA in liver amounted to 0.08. For the same molecule, the “performance of the lipid molecules, best performing compounds” value in the experiment on SSB mRNA in liver (ranking based on the results of Table 2 (liposomal formulation, SSB and APOB siRNA)) is on record as “best performing”.
As for `CCCCCCCCCCC(O)CN(CCCN(CCCN(CC(O)CCCCCCCCCC)CC(O)CCCCCCCCCC)CC(O)CCCCCCCCCC)CCCN(CC(O)CCCCCCCCCC)CC(O)CCCCCCCCCC` (stereo not drawn) [NsC4], the “Targeted mRNA remain in liver” value in the experiment with SSB mRNA in liver is 0.13.
On the same count and under the same terms, the result for `CCCCCCCCCCCCC(O)CN(CCCN(CCCN(CC(O)CCCCCCCCCCCC)CC(O)CCCCCCCCCCCC)CCCN(CC(O)CCCCCCCCCCCC)CC(O)CCCCCCCCCCCC)CC(O)CCCCCCCCCCCC` (stereo not drawn) [TaC6] reads 0.17; that for `CCCCCCCCCCC(O)CN(CCN(CCN(CC(O)CCCCCCCCCC)CC(O)CCCCCCCCCC)CCN(CC(O)CCCCCCCCCC)CC(O)CCCCCCCCCC)CC(O)CCCCCCCCCC` (stereo not drawn) [Compound T5C4], 0.41.
In the case of `CCCCCCCCCCCCCCC(O)CN(CCCN(CCCN(CC(O)CCCCCCCCCCCCCC)CC(O)CCCCCCCCCCCCCC)CC(O)CCCCCCCCCCCCCC)CCCN(CC(O)CCCCCCCCCCCCCC)CC(O)CCCCCCCCCCCCCC` (stereo not drawn) [NsC7], in the experiment on SSB mRNA in liver, the “Targeted mRNA remain in liver” value amounted to 0.1.
Regarding `CC(C)CCC[C@@H](C)[C@H]1CC[C@H]2[C@@H]3CC=C4C[C@@H](OC(=O)N5CCN(Cc6ccccc6)CCNCCN(Cc6ccccc6)CC5)CC[C@]4(C)[C@H]3CC[C@]12C` [Compound M6ch1], the “Targeted mRNA remain in liver” value with APOB mRNA in liver (dose 3 mg/kg intravenously) came out at 0.86.
As for `CCCCC(CC)COCC(O)CN(CCCN(CC(O)COCC(CC)CCCC)CC(O)COCC(CC)CCCC)CCCN(CC(O)COCC(CC)CCCC)CC(O)COCC(CC)CCCC` (stereo not drawn) [Compound D1C3], the “Targeted mRNA remain in liver” value in the experiment with SSB mRNA in liver amounted to 0.18.
Consider `CCCCCCCCCCCCC(O)CN(CCN(C)CCN(CC(O)CCCCCCCCCCCC)CC(O)CCCCCCCCCCCC)CC(O)CCCCCCCCCCCC` (stereo not drawn) [MdC6], for which the “Targeted mRNA remain in liver” value in the experiment on SSB mRNA in liver is given as 1.1.
On the same count and under the same terms, the same measure for `CCCCC(CC)COCC(O)CN(CCN(C)CCN(CC(O)COCC(CC)CCCC)CC(O)COCC(CC)CCCC)CC(O)COCC(CC)CCCC` (stereo not drawn) [MdC3]: 0.24.
With `CC(C)CCC[C@@H](C)[C@H]1CC[C@H]2[C@@H]3CC=C4C[C@@H](OC(=O)NCCN(CCN)CCN)CC[C@]4(C)[C@H]3CC[C@]12C` [Compound T5ch1], the “Targeted mRNA remain in liver” value in the experiment on APOB mRNA in liver (dose 3 mg/kg intravenously) worked out at 0.39.
As for `CCCCCCCCCCCCCCOCC(O)CN(CCCN(C)CCCN(CC(O)COCCCCCCCCCCCCCC)CC(O)COCCCCCCCCCCCCCC)CC(O)COCCCCCCCCCCCCCC` (stereo not drawn) [Compound B1C1], the “Targeted mRNA remain in liver” value in the experiment on APOB mRNA in liver (dose 0.8 mg/kg intravenously) stood at 0.82; in the experiment with SSB mRNA in liver it was 0.13.
With `CC(C)CCC[C@@H](C)[C@H]1CC[C@H]2[C@@H]3CC=C4C[C@@H](OC(=O)N5CCNCCNCCNCCNCCNCC5)CC[C@]4(C)[C@H]3CC[C@]12C` [Compound M10ch1], in the experiment on APOB mRNA in liver (dose 3 mg/kg intravenously), the “Targeted mRNA remain in liver” value was determined as 0.39.
For the molecule `CCCCCCCCCCOCC(O)CN(CCCN(CCCN(CC(O)COCCCCCCCCCC)CC(O)COCCCCCCCCCC)CC(O)COCCCCCCCCCC)CCCN(CC(O)COCCCCCCCCCC)CC(O)COCCCCCCCCCC` (stereo not drawn) [NsC2], the “Targeted mRNA remain in liver” value with SSB mRNA in liver was determined as 0.1.
Same read-out and setting: the result for `CCCCCCCCCCOCC(O)CN(CCCN1CCN(CCCN(CC(O)COCCCCCCCCCC)CC(O)COCCCCCCCCCC)CC1)CC(O)COCCCCCCCCCC` (stereo not drawn) [Compound B2C2] reads 0.36; that for `CCCCCCCCCCCCCCCCC(O)CN(CCN(C)CCN(CC(O)CCCCCCCCCCCCCCCC)CC(O)CCCCCCCCCCCCCCCC)CC(O)CCCCCCCCCCCCCCCC` (stereo not drawn) [MdC5], 0.45.
Still for that read-out and setting: the same measure for `CCCCCCCCCCCCCCC(O)CN(CCN(C)CCN(CC(O)CCCCCCCCCCCCCC)CC(O)CCCCCCCCCCCCCC)CC(O)CCCCCCCCCCCCCC` (stereo not drawn) [MdC7]: 0.25.
As for `CCCCCCCCCCCCCCCCC(O)CN1CCN(Cc2ccccc2)CCN(CC(O)CCCCCCCCCCCCCCCC)CCN(CC(O)CCCCCCCCCCCCCCCC)CC1` (stereo not drawn) [Compound M1C5], in the experiment with SSB mRNA in liver, the “Targeted mRNA remain in liver” value was determined as 0.6.
